The values below come from ChEMBL document CHEMBL1201862, “PubChem BioAssay data set” (2004).

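Protocol summary: plate cells (96-well), add compound at 5 concentrations, incubate 48 h, interpolate endpoints linearly. GI50: concentration for 50% inhibition of growth.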 Active and inactive are the calls of the source. No stated cut-off is given here; in the data, active = GI50 up to about 1.1 µM and inactive = higher.

Among the test systems are M14; SW-620; SN12C; CAKI-1; HT-29; OVCAR-5; LOX IMVI; T47D; COLO 205; SR; IGROV-1; HCC 2998; MOLT-4; HOP-92; RPMI-8226; NCI-H23; HOP-62; SK-MEL-5; MCF7; OVCAR-4.
What all share (assay): inhibition of tumour cell growth, NCI panel, 48 h

With `CN1CCN([C@H]2C[C@H]3[C@@H]4CC=C5C[C@@H](O)CC[C@]5(C)[C@H]4CC[C@]3(C)[C@H]2O)CC1`, the GI50 in the test on M14 was 17.5 µM (inactive); with SW-620 it was 20.7 µM (inactive); in the test on SN12C, > 100 µM (inactive); in the test on CAKI-1 it was > 100 µM (inactive); in the test with HT-29 it was 7.29 µM (inactive); in the test on OVCAR-5 it was > 47.5 µM (inactive). The GI50 with LOX IMVI is > 43.4 µM (inactive); in the test on T47D it was > 47.4 µM (inactive); with COLO 205, > 67.8 µM (inactive); with SR, 25.8 µM (inactive); in the test on IGROV-1, > 90.8 µM (inactive); in the test with HCC 2998, 44.2 µM (inactive). For the same molecule, the GI50 in the test on MOLT-4 is 49.7 µM (inactive); with HOP-92, > 100 µM (inactive); in the test on RPMI-8226 it was 23.9 µM (inactive); with NCI-H23, > 100 µM (inactive); in the test on HOP-62, > 51.9 µM (inactive); in the test with SK-MEL-5 it was 35.5 µM (inactive). In addition, the results for the GI50 with MCF7 and in the test with OVCAR-4 were > 45.6 µM (inactive) and > 41.1 µM (inactive), respectively.

As to `CN(C)C(=O)O/N=C1/C(=C2/C(=O)Nc3ccccc32)Nc2ccccc21`, the GI50 was 50.1 µM (inactive) with M14; 53.7 µM (inactive) with SW-620; 22.8 µM (inactive) in the test with SN12C; 0.883 µM (active) in the test on CAKI-1; 38.8 µM (inactive) in the test on HT-29; 31 µM (inactive) with OVCAR-5. Further, the GI50 with LOX IMVI is 86.3 µM (inactive); in the test with T47D it was 2.76 µM (inactive); in the test on COLO 205, > 100 µM (inactive); in the test on SR it was 4.89 µM (inactive); in the test on IGROV-1, 0.711 µM (active); with HCC 2998 it was 38.5 µM (inactive). The GI50 in the test with MOLT-4 was 10.4 µM (inactive); with HOP-92 it was 6.21 µM (inactive); with RPMI-8226, > 100 µM (inactive); in the test with NCI-H23 it was 28.7 µM (inactive); in the test on HOP-62 it was 14.1 µM (inactive); with SK-MEL-5 it was 24.2 µM (inactive). The GI50 was 17 µM (inactive) in the test with MCF7 and 6.81 µM (inactive) in the test on OVCAR-4.

For the molecule `OC1C[C@H](c2ccccc2)C2(C(O)c3ccccc3C2O)[C@@H](c2ccccc2)C1` (stereo not given in full), the GI50 with M14, in the test on SW-620, with SN12C, with CAKI-1, in the test with HT-29 and with OVCAR-5 was > 100 µM (inactive) throughout. Also, the GI50 is 40.2 µM (inactive) with LOX IMVI; > 100 µM (inactive) in the test with T47D; > 100 µM (inactive) with COLO 205; 11.1 µM (inactive) in the test with SR; > 100 µM (inactive) in the test on IGROV-1; > 100 µM (inactive) with HCC 2998. Further, the GI50 in the test on MOLT-4 was > 100 µM (inactive); in the test on HOP-92 it was 57.4 µM (inactive); in the test on RPMI-8226, 83.2 µM (inactive); with NCI-H23, > 100 µM (inactive); with HOP-62, > 100 µM (inactive); in the test on SK-MEL-5 it was > 100 µM (inactive). The GI50 in the test with MCF7 and in the test on OVCAR-4 was > 100 µM (inactive) each time.

As for `O=C1C(Cl)=C(OCCCl)C(=O)c2c(O)ccc(O)c21`, the GI50 was 1.88 µM (inactive) with M14; 2.05 µM (inactive) in the test on SW-620; 14.8 µM (inactive) with SN12C; 2.38 µM (inactive) with CAKI-1; 4.73 µM (inactive) with HT-29; 17.7 µM (inactive) with OVCAR-5. Moreover, the GI50 in the test on LOX IMVI is 4.32 µM (inactive); with T47D, 1.39 µM (inactive); with COLO 205, 1.61 µM (inactive); in the test on SR, 0.113 µM (active); in the test on IGROV-1, 7.13 µM (inactive); with HCC 2998 it was 18.5 µM (inactive). Moreover, the GI50 in the test on MOLT-4 is 0.212 µM (active); with HOP-92 it was 1.57 µM (inactive); in the test with RPMI-8226 it was 0.74 µM (active); with NCI-H23, 5.75 µM (inactive); in the test with HOP-62, 16.7 µM (inactive); in the test on SK-MEL-5, 2.75 µM (inactive). Moreover, the values for the GI50 with MCF7 and in the test on OVCAR-4 were 2.06 µM (inactive) and 2.77 µM (inactive), respectively.

For `O=C1N(CN2CCOCC2)CN(CN2CCOCC2)C(=O)N1Cc1ccccc1`, the GI50 is 19.2 µM (inactive) with M14; 22 µM (inactive) in the test on SW-620; 23 µM (inactive) in the test with SN12C; 29.2 µM (inactive) in the test on CAKI-1; 20.3 µM (inactive) with HT-29; > 100 µM (inactive) with OVCAR-5. Moreover, the GI50 in the test on LOX IMVI was 15.5 µM (inactive); in the test on T47D it was 30.3 µM (inactive); in the test with COLO 205, 20.1 µM (inactive); in the test with SR it was 18.8 µM (inactive); in the test on IGROV-1 it was 24.5 µM (inactive); with HCC 2998 it was 30.9 µM (inactive). The GI50 in the test on MOLT-4 is 20.1 µM (inactive); in the test with HOP-92, 25.8 µM (inactive); in the test with RPMI-8226, 26.5 µM (inactive); with NCI-H23, 17.9 µM (inactive); in the test with HOP-62, 35.4 µM (inactive); in the test on SK-MEL-5, 19.4 µM (inactive). Moreover, the GI50 in the test on MCF7 is 29.4 µM (inactive); in the test on OVCAR-4, 42.7 µM (inactive).

As to `CCCC(=O)Nc1cc(C(=O)N2C[C@H]3C[C@@]34C2=CC(=O)c2[nH]cc(C)c24)n(COC)c1`, the GI50 was 0.662 µM (active) with M14; 0.0169 µM (active) with SW-620; 0.966 µM (active) in the test with SN12C; 0.215 µM (active) in the test on CAKI-1; 0.467 µM (active) in the test with HT-29; 1.16 µM (inactive) in the test on OVCAR-5. The GI50 in the test on LOX IMVI was 0.12 µM (active); in the test on T47D it was 0.109 µM (active); in the test on COLO 205 it was 0.442 µM (active); in the test with SR, 0.00516 µM (active); in the test with IGROV-1, 0.11 µM (active); in the test with HCC 2998, 0.122 µM (active). The GI50 is 0.00879 µM (active) with MOLT-4; 0.245 µM (active) in the test on HOP-92; 0.71 µM (active) in the test on RPMI-8226; 0.0743 µM (active) in the test on NCI-H23; 0.728 µM (active) with HOP-62; 0.0792 µM (active) in the test on SK-MEL-5. The values for the GI50 in the test with MCF7 and with OVCAR-4 were 0.0303 µM (active) and 0.783 µM (active), respectively.

On to `CS(=O)(=O)OCCN(CCOS(C)(=O)=O)c1ccc(/C=N/c2ccc(-c3csc(COc4ccccc4)n3)cc2)cc1`, for which the GI50 with M14 was 5.6 µM (inactive); with SW-620, 8.09 µM (inactive); in the test with SN12C it was 5.14 µM (inactive); with CAKI-1, 0.853 µM (active); in the test with HT-29 it was 4.31 µM (inactive); with OVCAR-5, 3.73 µM (inactive). Moreover, the GI50 is 4.27 µM (inactive) with LOX IMVI; 1.32 µM (inactive) in the test on T47D; 2.07 µM (inactive) in the test with COLO 205; 0.222 µM (active) in the test with SR; 12.6 µM (inactive) in the test on IGROV-1; 2.26 µM (inactive) in the test on HCC 2998. Moreover, the GI50 with MOLT-4 is 0.271 µM (active); in the test with HOP-92 it was 15.6 µM (inactive); in the test with RPMI-8226 it was 4.47 µM (inactive); in the test with NCI-H23, 2.21 µM (inactive); in the test with HOP-62, 1.32 µM (inactive); with SK-MEL-5, 10.7 µM (inactive). Moreover, the figures for the GI50 in the test with MCF7 and in the test with OVCAR-4 were 5.42 µM (inactive) and 14.8 µM (inactive), respectively.
